Results reported in the SangsterLogP compilation.

What was measured:
[1] = method code SF-HPLC, from DOI: 10.1016/j.ijpharm.2013.10.039, PMID: 24184034; conditions: pH 7.0
[2] = method code SF-FL, from DOI: 10.1021/acs.jmedchem.5b00420, PMID: 26263187
[3] = method code SF-HPLC, from DOI: 10.1023/a:1016059008464, PMID: 8899834
[4] = method code SF-HPLC, from DOI: 10.1002/jps.2600830805, PMID: 7983590; conditions: pH 12.2
[5] = not given; remark: listed apart in the source
[6] = method code SF-HPLC, from DOI: 10.1021/js9504200, PMID: 8742941; conditions: pH 7.4
[7] = method code SF, from Moerlein, M.; Dischino, D.; Raymond, N.; Weitl, L.; Welch, J. (1982). Factors affecting the cerebral uptake of gallium complexes. J Labelled Comp Radiopharm, 19(11-12)1421-1422.; conditions: pH 7.0
[8] = not given; remark: listed apart in the source
[9] = pH 6.5
[10] = method code SF, from DOI: 10.3139/113.110173
[11] = not given; remark: listed apart in the source
[12] = method code SF, from DOI: 10.1021/jm00088a007, PMID: 1588555; conditions: pH 7.4
[13] = method code SF-AS, from DOI: 10.1016/s0960-894x(99)00527-2, PMID: 10571171; conditions: pH 7.0
[14] = not given; remark: listed apart in the source
[15] = method code SF-HPLC, from DOI: 10.1016/0378-5173(91)90200-8; conditions: pH 7.4
[16] = not given; remark: listed apart in the source
[17] = method code SF, from DOI: 10.1021/jm00079a001, PMID: 1732531; conditions: pH 7.4

CC(=O)O[C@@H]1C(=O)[C@]23C[C@H]2C[C@H]2OC[C@@]2(OC(C)=O)[C@H]3[C@H](OC(=O)c2ccccc2)[C@]2(O)C[C@H](OC(=O)[C@H](O)[C@@H](NC(=O)OC(C)(C)C)c3ccccc3)C(C)=C1C2(C)C
logD [1]: 2.06

COc1cccc2c1C(=O)c1c(O)c3c(c(O)c1C2=O)CC(O)(C(=O)CO)CC3OC1CC(NC(=O)C2CCC(CN3C(=O)CC(SCCN)C3=O)CC2)C(O)C(C)O1 (stereo not drawn)
logP [2]: -0.02

CC(C)CCC[C@@H](C)[C@H]1CC[C@H]2[C@@H]3CC[C@H]4C[C@@H](CCC=C(c5cc(Cl)c(O)c(C(=O)O)c5)c5cc(Cl)c(O)c(C(=O)O)c5)CC[C@]4(C)[C@H]3CC[C@]12C
logP [3]: 6.94

CCCCC(NC(C)=O)C(=O)NC1NCCCCC(C(N)=O)NC(=O)C(Cc2c[nH]c3ccccc23)NC(=O)C(CCCC(=N)N)NC(=O)C(Cc2ccccc2)NC(=O)C(Cc2cnc[nH]2)NC1=O (stereo not drawn)
logD [4]: 1.1

CC(C)Cc1ccc(C(Nc2cccc(C(=O)c3cn(CCCC(=O)O)c4ccccc34)c2)c2ccc(CC(C)C)cc2)cc1
logP: 3

Cc1ccccc1NC(=O)Nc1ccc(CC(=O)N[C@@H](CCCCNC(=O)/C=C/c2cccnc2)C(=O)N[C@@H](CCCC(=O)O)C(=O)NC2(C(N)=O)CCCCC2)cc1
logP [5]: 3.26

O=C(OCCCCCC1CCSS1)c1cc(=O)c2c(OCC(O)COc3cccc4oc(C(=O)OCCCCCC5CCSS5)cc(=O)c34)cccc2o1 (stereo not drawn)
logD [6]: 2.87

CCCCCCN(CCCCN(CCCN(CCCCCC)C(=O)c1cccc(O)c1O)C(=O)c1cccc(O)c1O)C(=O)c1cccc(O)c1O
logD [7]: -1.52

CCOc1ccc(N2CCN(CC(O)CC(Cc3ccccc3)C(=O)NC3c4ccccc4CC3O)C(C(=O)NC(C)(C)C)C2)cn1 (stereo not drawn)
logP [8]: 3.62

CCCCC(OC(Cc1ccccc1)C(=O)N1CCC(OCOC)CC1)C(=O)NC(CC1CCCCC1)C(O)CC(C(=O)NCc1nn[nH]n1)C(C)C (stereo not drawn)
logD [9]: 2.9

CCCCCCCCCCCOCCOCCOCCOCCOCCOCCOCCOCCOCCOCCOCCOCCOCCOCCOCCOCCOCCOCCOCCOCCOCCOCCOCCOCCOCCOCCOCCOCCO
logP [10]: 0.31

COC1C(OC(C)=O)CC(=O)OC(C)CC=CC=CC(O)C(C)CC(CC=O)C1OC1OC(C)C(OC2C[C@@](C)(O)C(OC(=O)CC(C)C)C(C)O2)C(N(C)C)C1O (stereo partly drawn)
logP [11]: 2.39

CCCC[C@H](O[C@@H](Cc1ccccc1)C(=O)N1CCC(OCOC)CC1)C(=O)NC(CC1CCCCC1)C(O)CC(C(=O)NCCCN1CCOCC1)C(C)C (stereo partly drawn)
logD [12]: 4.3

O=C(NCCCC(CO)(CCCNC(=O)c1ccc2cccnc2c1O)CCCNC(=O)c1ccc2cccnc2c1O)c1ccc2cccnc2c1O
logD [13]: 1.2

COc1cc(C)c(S(=O)(=O)NC(CC(=O)NC2OC(CO)C(O)C(O)C2NC(C)=O)C(=O)NC(Cc2ccc(C(=N)N)cc2)C(=O)N2CCCCC2)c(C)c1C (stereo not drawn)
logP [14]: -1.5

CCC(C(=O)OCc1ccc(COC(=O)C(CC)C(COC(=O)C2CC2)Cc2cncn2C)cc1)C(COC(=O)C1CC1)Cc1cncn1C (stereo not drawn)
logD [15]: 4.2

Nc1cccc(CN2C(=O)N(c3cccc(C(=O)Nc4cnccn4)c3)C(Cc3ccccc3)C(O)C(O)C2Cc2ccccc2)c1 (stereo not drawn)
logP [16]: 3.77

C=CC[C@H](NC(=O)[C@@H](Cc1ccccc1)NS(=O)(=O)N1CCN(C)CC1)C(=O)NC(CC1CCCCC1)C(=O)C(F)(F)C(=O)NCCN1CCOCC1 (stereo partly drawn)
logD [17]: 2.73
